# Results reported in paper PMC8443647, “Hybrid derivative of cathelicidin and human beta defensin-2 against Gram-positive bacteria: A novel approach for the treatment of bacterial keratitis” (Scientific Reports, 2021).
# Several values for one entry are separate records, joined by “and”; a condition that tells them apart may be missing. Equal values may be shown once. Read-outs that look alike come from different tables or passages of the source. Peptide text beside a SMILES is read from it.
# Assays:
# S. aureus ATCC 29213 = type: cell-based, Staphylococcus aureus; conditions: ATCC 29213, 24 h
# From the text: (§1) A range of Gram-positive and Gram-negative laboratory- and clinical-strain bacteria were used for the experiments. These included laboratory-strain methicillin-sensitive S. aureus (MSSA; including SH1000 and ATCC SA29213), laboratory-strain MRSA (ATCC MRSA43300), clinical-strain MRSA (MRSA-OS; an IK isolate), laboratory-strain methicillin-sensitive Staphylococcus epidermidis (MSSE; ATCC SE12228), laboratory invasive-strain P. aeruginosa (PAO1-L), and clinical cytotoxic-strain P. aeruginosa (PA-OS; an IK isolate).
# (§2) In vitro antimicrobial efficacy of the antibiotics and designed HDPs was determined using an established MIC assay with broth microdilution method approved by the Clinical and Laboratory Standards Institute (CLSI)[64]. Briefly, the microorganisms were cultured on Tryptone Soya Agar (TSA) and incubated overnight for 18–21 h at 37 °C. Bacterial inoculums were subsequently prepared using the direct colony suspension method. Three to five bacterial colonies were obtained from the agar plate and inoculated into an Eppendorf tube containing 1 ml of cation-adjusted Muller-Hinton broth (caMHB), consisting of 20–25 mg/L calcium ions (Ca^2+) and 10–12.5 mg/L magnesium ions (Mg^2+). The bacterial suspension was adjusted to achieve a turbidity equivalent to 0.1 OD600 or 0.5 MacFarland, containing ~ 1.5 × 10^8 colony-forming unit (CFU)/ml, which was then further diluted in 1:150 in caMHB to reach a final bacterial concentration of ~ 1 × 10^6 colony forming units (CFU)/ml. Each treatment (peptide or antibiotic) was prepared in 1:2 serial dilution in 96-well polypropylene microplates (with a final treatment volume of 50 μl per well), followed by the addition of 50 μl of 1 × 10^6 CFU/ml bacteria into each well (with a final bacterial concentration of 5 × 10^5 CFU/ml).
# MRSA ATCC 43300 = type: cell-based, Staphylococcus aureus; conditions: ATCC 43300, 24 h
# From the text: as §1, §2
# MRSA = type: cell-based, Staphylococcus aureus
# From the text: as §1, §2
# MSSA = type: cell-based, Staphylococcus aureus
# From the text: as §1, §2
# P. aeruginosa PA-OS = assay: microbe, parasite or virus in culture; type: cell-based; conditions: 24 h
# From the text: as §1, §2
# corneal epithelial wound = conditions: mouse, in vivo
# Experimental: The in vivo studies were conducted in two stages, namely the corneal wound healing study (for safety) and BK study (for efficacy), based on previously established protocols[54],[65]. […] The mice were maintained and treated in compliance with the Guide for the Care and Use of Laboratory Animals (National Research Council) and the ARVO statement for the Use of Animals in Ophthalmic and Vision Research. […]
# In vivo safety of CaD23 (in 0.03%, 0.05% or 0.1%), and PBS (negative control) was first determined in a mouse corneal epithelial wound healing model. In the absence of in vivo pilot data of our designed HDPs, the sample size was calculated based on a previous study. […]
# All mice were randomly allocated to each of the four treatment groups (n = 4 mice/group). […] Corneal epithelial defect was assessed using a cobalt-blue filter-equipped slit-lamp biomicroscopy and photography with staining with topical sodium fluorescein 1% at baseline (immediately post-debridement) and daily up to 3 days post-treatment. Fluorescein-stained images of the corneal wound defect were analyzed using ImageJ software (https://imagej.nih.gov/ij/)[68]. The main outcome measure was the wound size at the end of day 1, 2 and 3 [expressed as % of the original wound size in mean and standard deviation (SD)]. […]
# in vitro = type: cell-based, human; conditions: human
# Experimental: (§3) Cell viability and cytotoxicity of antibiotics and peptides were determined against human corneal epithelial cells (HCE-2, CRL-11135, ATCC, Manassas, Virginia, USA) using cell-counting-kit-8 (CCK-8) assay (Sigma Aldrich, Merck Life Science UK Limited, Dorset, UK) and lactate dehydrogenase (LDH) assay (ThermoFisher Scientific, UK), respectively, as per manufacturer’s guidelines. HCE-2 cells were cultured and seeded into a 96-well plate at a density of 7.5 × 10^3 cells/well and allowed to attach overnight and grew to 80–90% confluency in keratinocyte serum free medium (KSFM) supplemented with human recombinant epidermal growth factor, bovine pituitary extract, hydrocortisone, and insulin. Once the confluency reached 80–90%, the cells were incubated with treatment for 3 h before OD450 measurement was taken using BMG Clariostar microplate reader (BMG Labtech Ltd., Aylesbury, UK). Appropriate controls were used, including 0.1% Triton X-100 as positive control and KSFM as negative control. Cell viability was calculated using the following formula: [([…]) × 100; I = intensity] and cytotoxicity was calculated using the following formula: [((Itreatment – INC)/(IPC – INC)) × 100].
# [1] = tested on: S. epidermidis ATCC 12228; type: cell-based, Staphylococcus epidermidis; conditions: ATCC 12228, 24 h
# From the text: as §1
# In vitro antimicrobial efficacy of the antibiotics and designed HDPs was determined using an established MIC assay with broth microdilution method approved by the Clinical and Laboratory Standards Institute (CLSI)[64]. Briefly, the microorganisms were cultured on Tryptone Soya Agar (TSA) and incubated overnight for 18–21 h at 37 °C. Bacterial inoculums were subsequently prepared using the direct colony suspension method. Three to five bacterial colonies were obtained from the agar plate and inoculated into an Eppendorf tube containing 1 ml of cation-adjusted Muller-Hinton broth (caMHB), consisting of 20–25 mg/L calcium ions (Ca^2+) and 10–12.5 mg/L magnesium ions (Mg^2+). […]
# Hemolytic assay = type: cell-based; conditions: human
# Experimental: (§4) Ethical approval was obtained from the Local Research Ethics Committee of University of Nottingham prior to the experiment (Ref: 176-1812). The experiment was conducted in accordance with the relevant guidelines and regulations. Hemolytic assay was performed according to the previously established protocol. Briefly, 5 ml of fresh human blood was collected from healthy participants with written informed consent, in an EDTA tube and centrifuged for 10 min at 1300g at 10 °C for separation of plasma. The remaining erythrocytes were rinsed and centrifuged further three times in Ca^2+/Mg^2+ free Dulbecco’s phosphate-buffered saline (DPBS). Subsequently, erythrocytes were diluted to 8% v/v in DPBS and incubated with 100 μl of treatment, positive control (1% Triton X-100) and negative control (DPBS), all in 1:1 ratio, for 1 h (final erythrocytes concentration = 4% v/v). After 1 h of incubation, the plate was centrifuged at 500×g for 5 min and 100 μl of supernatant of each well was transferred into a 96-well plate for measurement at OD540. Hemolysis (%) was calculated as [(Itreatment – INC)/(IPC – INC)] × 100.
# MRSA-OS = assay: microbe, parasite or virus in culture; type: cell-based, Staphylococcus aureus; conditions: 24 h
# From the text: as §1, §2
# S. aureus ATCC SA29213 = assay: Multipassage antimicrobial resistance (AMR) assay; type: cell-based, Staphylococcus aureus
# Experimental: Multipassage AMR assays were performed to evaluate the risk of development of AMR of S. aureus (ATCC SA29213) against CaD23 and amikacin over 10 consecutive passages (days). The assay was conducted in a similar manner of the MIC assay described above. […] This was then further diluted in 1:150 in caMHB to reach a final bacterial concentration of ~ 1 × 10^6 colony forming units (CFU)/ml. […] Development of AMR was defined as ≥ fourfold increase in the MIC level compared to the baseline.
# S. aureus (SH1000) = assay: Time-kill kinetics assay; type: cell-based, Staphylococcus aureus
# Experimental: Time-kill kinetics assay was performed to determine the time-dependent and concentration-dependent in vitro antimicrobial effects of the CaD23 and amikacin, a commonly used topical antibiotics for BK, against 100 μl of ~ 1 × 10^6 CFU/ml of SH1000 (1:1 treatment-bacteria ratio) at various time points, including 0 min (pre-treatment), 15 min, 30 min, 60 min, 2 h, 4 h, and 24 h. At each time point, 10 μl of the treated bacteria was transferred to an Eppendorf tube containing 90 μl of PBS, which was then serially diluted in 1:10 concentration for inoculation on agar plates and incubated overnight for 18–21 h at 37 °C for enumeration of CFU.
# P. aeruginosa PAO1-L = assay: microbe, parasite or virus in culture; type: cell-based; conditions: Pseudomonas aeruginosa, PAO1, 24 h, caMHB, 24 h, read-out: MIC
# From the text: as §1, §2
# [2] = tested on: human corneal epithelial cells (HCE-2); assay: cells; type: cell-based; conditions: Homo sapiens, Corneal epithelial cell, 3 h, read-out: IC50 (concentration causing 50% inhibition of cell viability)
# Experimental: as §3
# [3] = tested on: human corneal epithelial cells (HCE-2); assay: in vitro; type: cell-based; conditions: human, 3 h, 200 µg/ml
# Experimental: as §3
# fresh human erythrocytes = assay: Hemolytic assay; type: cell-based; conditions: 1 h
# Experimental: as §4
# S. aureus SH1000 = assay: microbe, parasite or virus in culture; type: cell-based, Staphylococcus aureus; conditions: Staphylococcus aureus, SH1000, 24 h, caMHB, 24 h, read-out: MIC
# From the text: as §1, §2
smiles,measurement,setting,value
"CC[C@H](C)[C@H](NC(=O)[C@H](CCCNC(=N)N)NC(=O)[C@H](CCC(N)=O)NC(=O)[C@@H](NC(=O)[C@@H](NC(=O)[C@H](CCCNC(=N)N)NC(=O)[C@@H](N)CCCCN)[C@@H](C)CC)C(C)C)C(=O)N[C@@H](CCCCN)C(=O)N[C@@H](CC(=O)O)C(=O)N[C@@H](Cc1c[nH]c2ccccc12)C(=O)N[C@@H](CC(C)C)C(=O)N[C@@H](CCCNC(=N)N)C(=O)N[C@@H](CCCCN)C(=O)N[C@@H](CC(C)C)C(=O)N[C@@H](CS)C(=O)N[C@@H](CCCCN)C(=O)N[C@@H](CCCCN)C(=O)N[C@@H](Cc1c[nH]c2ccccc12)C(=O)O [CaD23, KRIVQRIKDW LRKLCKKW] (H-KRIVQRIKDWLRKLCKKW-OH; N-terminus and C-terminus assumed)",MIC,S. aureus ATCC 29213,50 µg/mL
same,MIC,MRSA ATCC 43300,100 µg/mL
same,MIC,MRSA,25 µg/mL
same,MIC,MSSA,12.5 to 25.0 µg/mL
same,MIC,P. aeruginosa PA-OS; PA-OS,50 µg/mL
same,Mean wound size (% of original wound size),corneal epithelial wound,28.5 ± 19.9%
same,CC50 at 3 h,in vitro,> 200 µg/mL
same,MIC,[1],5.2 µM
same,"hemolysis at 1 h, 200 µg/ml",Hemolytic assay; Hmax (%): percentage of hemolysis at 200 µg/ml,< 10%
same,MIC,MRSA-OS; -OS,100 µg/mL
"NCC[C@H](O)C(=O)N[C@@H]1C[C@H](N)[C@@H](O[C@H]2O[C@H](CN)[C@@H](O)[C@H](O)[C@H]2O)[C@H](O)[C@H]1O[C@H]1O[C@H](CO)[C@@H](O)[C@H](N)[C@H]1O [Amikacin, amikacin, reference compound]",Increase in the MIC after the 2nd passage,S. aureus ATCC SA29213; 2nd passage,fourfold
same,Increase in the MIC after the 10th passage,S. aureus ATCC SA29213; 10 consecutive passages (days),32 fold
same,Development of AMR after 10 consecutive passages,S. aureus ATCC SA29213; AMR defined as ≥ fourfold increase in MIC vs baseline,developed significant AMR
same,Bacterial re-growth at 24 h time-point,"S. aureus (SH1000); CaD23 25 μg/ml, amikacin 10 μg/ml and 25 μg/ml",no evidence of bacterial re-growth
same,Time to complete killing,"S. aureus (SH1000); amikacin 20 μg/ml (8× MIC), caMHB with 150 mM NaCl",≤ 4 h
same,Speed of killing relative to CaD23 (times slower),S. aureus (SH1000); amikacin 25 μg/ml (20× MIC) vs CaD23 25 μg/ml (2× MIC),8 times
same,Time to complete killing,"S. aureus (SH1000); amikacin 8× MIC (10 μg/ml), caMHB",≤ 4 h
same,MIC,P. aeruginosa PAO1-L; 0 mM NaCl,0.63 µg/mL and 1.08 µM
same,MIC,P. aeruginosa PAO1-L; 150 mM NaCl,1.25 µg/mL and 2.13 µM
same,MIC,"P. aeruginosa PA-OS; Pseudomonas aeruginosa, 0 mM NaCl, caMHB, read-out: MIC",0.63 µg/mL and 1.08 µM
same,MIC,"P. aeruginosa PA-OS; Pseudomonas aeruginosa, 150 mM NaCl, caMHB, read-out: MIC",1.25 µg/mL and 2.13 µM
same,IC50,[2],> 200 µg/mL
same,CC50 at 3 h,in vitro,> 200 µg/mL
same,Lmax (%): percentage of cytotoxicity at 200 µg/ml,[3],0.0 (0.1) %
same,"hemolysis at 1 h, 200 µg/ml","Hemolytic assay; fresh human erythrocytes (4% v/v), human erythrocytes, 200 µg/ml, 1 h, mean (SD), read-out: Hmax (%): percentage of hemolysis at 200 µg/ml",0%
same,HC50 (concentration causing 50% hemolysis),fresh human erythrocytes,> 200 µg/mL
same,MIC,S. aureus SH1000; 0 mM NaCl,1.25 µg/mL and 2.13 µM
same,MIC,S. aureus SH1000; 150 mM NaCl,2.5 µg/mL and 4.27 µM
same,MIC,"MRSA-OS; 150 mM NaCl, caMHB",10 µg/mL
same,MIC,"MRSA-OS; 150 mM NaCl, caMHB, read-out: MIC",17.1 µM
same,MIC,"MRSA-OS; Staphylococcus aureus, MRSA, 0 mM NaCl, caMHB, read-out: MIC",10 µg/mL and 17.1 µM
